Results published in paper PMC7260179, “Structural insight into the electron transfer pathway of a self-sufficient P450 monooxygenase” (Nature Communications, 2020).

How the values were obtained:
CYP116B46 [1] = biological target: T1, CYP116B46 (Tepidiphilus thermophilus, UniProt A0A0K6ITW2); assay: X-ray crystal structure; format: binding; conditions: crystals at pH 7.0
T1 construct: gene Ga0061068_103196; full-length, synthetic gene in pET46 Ek/LIC (Ni-NTA purified), expressed in E. coli BL21(DE3); residues 27-779 modelled in crystal

CYP116B46 [2] = biological target: T1, CYP116B46; assay: hydroxylation assay, GC-FID of silylated products; format: biochemical; conditions: 0.4 mM substrate, 10 uM enzyme, 1 mM NADP+ with glucose dehydrogenase/glucose recycling, pH 8.0, 30 C, 5 h

T1 sequence (A0A0K6ITW2 entry or part of it): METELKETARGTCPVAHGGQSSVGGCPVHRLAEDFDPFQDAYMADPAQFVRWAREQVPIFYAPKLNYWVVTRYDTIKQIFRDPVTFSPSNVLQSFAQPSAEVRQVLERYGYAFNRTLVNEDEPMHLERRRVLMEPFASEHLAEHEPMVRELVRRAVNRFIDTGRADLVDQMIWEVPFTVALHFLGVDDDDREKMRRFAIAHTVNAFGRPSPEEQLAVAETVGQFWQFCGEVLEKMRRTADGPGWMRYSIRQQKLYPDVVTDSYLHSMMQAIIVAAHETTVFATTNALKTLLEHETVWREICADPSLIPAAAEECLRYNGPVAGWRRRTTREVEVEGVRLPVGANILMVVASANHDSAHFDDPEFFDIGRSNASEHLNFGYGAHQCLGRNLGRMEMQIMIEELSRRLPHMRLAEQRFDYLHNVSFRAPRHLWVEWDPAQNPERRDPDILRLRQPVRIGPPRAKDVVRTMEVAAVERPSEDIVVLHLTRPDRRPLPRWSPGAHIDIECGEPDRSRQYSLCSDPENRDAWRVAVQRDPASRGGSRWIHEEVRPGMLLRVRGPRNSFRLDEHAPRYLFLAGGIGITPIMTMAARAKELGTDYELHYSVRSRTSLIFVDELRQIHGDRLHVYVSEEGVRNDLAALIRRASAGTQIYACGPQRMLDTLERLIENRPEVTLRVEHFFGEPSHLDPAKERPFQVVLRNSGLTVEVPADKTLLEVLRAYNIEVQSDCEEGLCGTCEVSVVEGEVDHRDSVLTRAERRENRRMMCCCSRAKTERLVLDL

## Cc1cc2nc3c(=O)[nH]c(=O)nc-3n(C[C@H](O)[C@H](O)[C@H](O)COP(=O)(O)O)c2cc1C [FMN]
CYP116B46 [1]; reductase domain, co-purified with the recombinant protein
  X-ray crystal structure, 2.13 A: The FMN bound in the reductase domain was co-purified with the recombinant protein

## [S]1[Fe][S][Fe]1 [[2Fe-2S] cluster]
CYP116B46 [1]; ferredoxin domain
  X-ray crystal structure, 2.13 A: binding sites for each of the prosthetic groups, heme, FMN and binuclear Fe-S cluster

## CCCCCCCCCC(=O)O [decanoic acid]
CYP116B46 [2]
  hydroxylation assay, GC-FID of silylated products: The enzyme activity of CYP116B46 was estimated by decanoic acid hydroxylation assay
